Legend:
[1] = molecular target: T1, DNA topoisomerase II (Homo sapiens) (UniProt P11388+Q02880); assay: (§1) Compound was tested for percentage inhibition against DNA topoisomerase II; format: protein assay; set-up: concentration or dose not given beside the values; details: concentration not given here
[2] = molecular target: T1, DNA topoisomerase II (Homo sapiens); assay: as §1; format: protein assay; details: concentration not given here

| SMILES | inhibition [1] [%] | inhibition [2] [%] |
| --- | --- | --- |
| COc1cc([C@@H]2c3cc4c(cc3[C@@H](O)[C@H]3COC(=O)[C@H]23)OCO4)cc(OC)c1O | 60 | – |
| CCO[C@@H]1c2cc3c(cc2[C@@H](c2cc(OC)c(O)c(OC)c2)[C@H]2C(=O)OCC12)OCO3 (some centres undefined) | 89 | – |
| COc1cc([C@@H]2c3cc4c(cc3[C@@H](O)C3COC(=O)[C@@H]32)OCO4)cc(O)c1O (some centres undefined) | – | 75 |
| COc1cc([C@@H]2c3cc4c(c(OC(C)=O)c3CC3COC(=O)[C@@H]32)OCO4)cc(OC)c1OC(C)=O (some centres undefined) | – | 10 |
| COc1cc([C@@H]2c3cc4c(c(O)c3C[C@H]3COC(=O)[C@@H]32)OCO4)cc(OC)c1O | 20 | – |
| COc1cc([C@@H]2c3cc(OC(C)=O)c(OC(C)=O)c(OC(C)=O)c3CC3COC(=O)[C@@H]32)cc(OC)c1OC(C)=O (some centres undefined) | – | 25 |
| COc1cc([C@@H]2c3cc4c(cc3[C@H](O)[C@H]3COC(=O)[C@H]23)OCO4)cc(OC)c1OC | 30 | – |
| COc1cc([C@@H]2c3cc4c(cc3[C@@H](O[C@@H]3O[C@@H]5CO[C@@H](C)O[C@H]5[C@H](O)[C@H]3O)[C@H]3COC(=O)[C@H]23)OCO4)cc(OC)c1O | 85 | – |
| COc1cc([C@@H]2c3cc(O)c(O)c(O)c3CC3COC(=O)[C@@H]32)cc(OC)c1O (some centres undefined) | – | 45 |
